Results reported in patent US6235761A, “Compound, composition and method for treating cancer” (priority 1999, dated 2001).

Legend:
MX-1 mammary tumor = experiment: sc MX-1 mammary tumor in athymic mice (Table 2); type: in vivo, human tumor in athymic mice (Ncr-nu)
Procedure: (§1) This Example illustrates the efficacy of penclomedine and 4-demethylpenclomedine in the treatment of cancer. MX-1 mammary tumor xenograft was subcutaneously implanted into mice, and the mice were exposed to the compounds. The testing of the mice was performed following a published procedure. See, e.g., Plowman et al., supra; Geran et al., Cancer Chemother. Rep., Part 2, 1-55 (1972); Developmental Therapeutics Program, Division of Cancer Treatment, NCI, in In Vivo Models 1976-1982, NIH Publication No. 84-2635, Washington D.C., U.S. Govt. Printing Office (1984).
(§2) This Example further illustrates the efficacy of penclomedine and 4-demethylpenclomedine in the treatment of cancer. The compounds were tested in vivo on mice by the procedure set forth in Example 2. The results obtained are set forth in Table 2 and confirm that 4-demethyl-penclomedine is active against cancer, particularly mammary, colon, and renal cancer.
(§3) ^a Athymic mice (Ncr-nu) were implanted either intracranially (ic) with
(§4) […] MX-1 mammary tumor cells or subcutaneously (sc) with fragments of
(§5) human tumors (CAKI-, renal; HT29, colon; MX-1, mammary).
^b The difference in the median of time poststaging for tumors to
double in mass: T (treated mice), C (control mice)

[1] = test system: MX-1 Mammary Tumor Xenograft; experiment: Subcutaneously-implanted MX-1 mammary tumor xenograft in mice (Table 1); type: in vivo, human tumor in mice; conditions: for Days to 2 Doublings / Non-Specific Deaths / Total / Tumor Free Survival/Total / Tumor Delay (T-C) / Tumor Regression, Complete / Tumor Regression, Partial / Duration of regression, Med: x5, from Day 12; for Tumor Delay (T-C): control 8.0 days; for Tumor Regression, Complete / Tumor Regression, Partial: number of mice
Procedure: as §1
Response of Subcutaneously-Implanted MX-1 Mammary Tumor Xenograft to
^1 Treatment started on Day 12 following tumor implant.
^2 Nonspecific deaths: A treated, tumored animal was presumed to be a
^3 Tumor regression was scored (excluding nonspecific deaths),
^4 Duration of regression: the interval during which a tumor classified
^5 Evaluation size: this value is the tumor mass selected at one or two
^6 Time required for tumor mass doubling: the time required for a tumor
^7 T-C (days): the difference in the median of times postimplant for […]

MX-1 mammary tumor cells = experiment: ic MX-1 mammary tumor in athymic mice, increased life span (Table 2); type: in vivo, human tumor in athymic mice (Ncr-nu); conditions: days 1-5
Procedure: as §1, §2, §3, §4, §5
^c % ILS (increased life span) values are not provided where the mice
were sacrificed when tumors reached 4 g mass.

[2] = 135 mg/kg/dose oral, highest dosage level, days 13-17
[3] = 135 mg/kg/dose oral, highest dosage level

Row | SMILES | T-C, comparison of the two compounds (MX-1 mammary tumor; Table 2) | Days to 2 Doublings ([1]; 60 mg/kg IP) [days] | Non-Specific Deaths / Total ([1]; 60 mg/kg IP) | Tumor Free Survival/Total ([1]; 60 mg/kg IP) | Tumor Delay (T-C) ([1]; 60 mg/kg IP) [days] | Tumor Regression, Complete ([1]; 60 mg/kg IP) | Tumor Regression, Partial ([1]; 60 mg/kg IP) | Days to 2 Doublings ([1]; 90 mg/kg IP) [days] | Non-Specific Deaths / Total ([1]; 90 mg/kg IP) | Tumor Free Survival/Total ([1]; 90 mg/kg IP) | Tumor Delay (T-C) ([1]; 90 mg/kg IP) [days] | Tumor Regression, Complete ([1]; 90 mg/kg IP) | Tumor Regression, Partial ([1]; 90 mg/kg IP) | Days to 2 Doublings ([1]; 135 mg/kg IP) [days] | Non-Specific Deaths / Total ([1]; 135 mg/kg IP) | Tumor Free Survival/Total ([1]; 135 mg/kg IP) | Tumor Delay (T-C) ([1]; 135 mg/kg IP) [days] | Tumor Regression, Complete ([1]; 135 mg/kg IP) | Tumor Regression, Partial ([1]; 135 mg/kg IP) | tumor growth delay, comparison of the two compounds ([1]; Table 1) | other results
1 | COc1nc(C(Cl)(Cl)Cl)c(Cl)c(O)c1Cl [4-Demethylpenclomedine, 3,5-dichloro-2-methoxy-4-hydroxy-6-(trichloromethyl)-pyridine] | nearly identical T-C | 23.4 | 0/5 | 2/5 | 15.4 | 2 | 0 | > 49.0 | 0/5 | 3/5 | > 41.0 | 5 | 0 | > 49.0 | 1/5 | 3/5 | > 41.0 | 4 | 0 | identical tumor growth delay | T-C (MX-1 mammary tumor; 90 mg/kg/dose IP, days 12-16): > 41.0 days; Tumor-Free Survival/Total (MX-1 mammary tumor; 90 mg/kg/dose IP, days 12-16): 3/5; T-C (MX-1 mammary tumor; 90 mg/kg/dose IP, days 15-19): > 37.2 days; Tumor-Free Survival/Total (MX-1 mammary tumor; 90 mg/kg/dose IP, days 15-19): 3/5; T-C (MX-1 mammary tumor; [2]): 36.7 days; Tumor-Free Survival/Total (MX-1 mammary tumor; [2]): 2/5; activity against MX-1 tumors (T-C) (MX-1 mammary tumor; Table 2): active against MX-1, colon, and renal tumors; Duration of regression, Med ([1]; 90 mg/kg IP): 32.5 days; Duration of regression, Med ([1]; 135 mg/kg IP): 35.7 days; Median % ILS (dying mice only) (MX-1 mammary tumor cells; 90 mg/kg/dose IP): +60%; Tumor-Free Survival/Total (MX-1 mammary tumor cells; 90 mg/kg/dose IP): 0/5; Median % ILS (dying mice only) (MX-1 mammary tumor cells; [3]): +66%; Tumor-Free Survival/Total (MX-1 mammary tumor cells; [3]): 1/5
2 | COc1nc(C(Cl)(Cl)Cl)c(Cl)c(OC)c1Cl [Penclomedine, 3,5-dichloro-2,4-dimethoxy-6-(trichloromethyl)pyridine] | nearly identical T-C | > 49.0 | 0/5 | 4/5 | > 41.0 | 5 | 0 | > 49.0 | 0/5 | 5/5 | > 41.0 | 5 | 0 | > 49.0 | 0/5 | 5/5 | > 41.0 | 5 | 0 | identical tumor growth delay | T-C (MX-1 mammary tumor; 135 mg/kg/dose IP, days 12-16): > 41.0 days; Tumor-Free Survival/Total (MX-1 mammary tumor; 135 mg/kg/dose IP, days 12-16): 5/5; T-C (MX-1 mammary tumor; 135 mg/kg/dose IP, days 13-17): > 38.5 days; Tumor-Free Survival/Total (MX-1 mammary tumor; 135 mg/kg/dose IP, days 13-17): 5/5; T-C (MX-1 mammary tumor; 135 mg/kg/dose IP, days 15-19): > 37.2 days; Tumor-Free Survival/Total (MX-1 mammary tumor; 135 mg/kg/dose IP, days 15-19): 5/5; survival rate, compared with 4-demethylpenclomedine (MX-1 mammary tumor; Table 2): slightly higher survival rate; survival rate, compared with 4-demethylpenclomedine ([1]; Table 1): slightly higher survival rate; Median % ILS (dying mice only) (MX-1 mammary tumor cells; 90 mg/kg/dose IP): +88%; Tumor-Free Survival/Total (MX-1 mammary tumor cells; 90 mg/kg/dose IP): 0/5; Median % ILS (dying mice only) (MX-1 mammary tumor cells; 90 mg/kg/dose oral): +72%; Tumor-Free Survival/Total (MX-1 mammary tumor cells; 90 mg/kg/dose oral): 0/5
